Assay results: US10391070B2, “Compositions and methods for treating neurological diseases or injury” (MUSC FOUNDATION FOR RESEARCH DEVELOPMENT, priority 2012, dated 2019)

How the values were obtained:
[1] = Mouse neurotoxicity (rotorod); type: in vivo; details: mice, 100 mg/kg i.p.
Protocol: Using a 96-well plate, one zebrafish larva (7 dpf) was placed in each well in 100 μL of tank water. 100 μL of each compound was then added to each well for 12 animals (one row) for a final volume of 200 μL. One row of zebrafish larvae was used as DMSO only controls. […] Toxicity was also measured in the mouse model by the NIH Anticonvulsant Screening Program at the National Institute of Neurological Disorders and Stroke (Stables and Kupferberg, 1997), according to the established NIH experimental procedures. Compounds were delivered into mice by intraperitoneal (i.p.) injection at a dose of 100 mg/kg in sterile 5% DMSO, 95% Neobee (Josey et al., 2013). Acute toxicity was assessed by monitoring the animals for impaired neuromuscular function by placing treated mice on a rod rotating at 6 rpm. […].

PTZ-induced seizures = assay: Subcutaneous PTZ seizure threshold test; type: in vivo, mouse; details: mice, 100 mg/kg i.p. pretreatment, PTZ 85 mg/kg s.c.
Protocol: Mouse studies were performed by NIH Anticonvulsant Screening Program at the National Institute of Neurological Disorders and Stroke (Stables and Kupferberg, 1997) according to the established NIH experimental procedures outlined below. Compounds were delivered into mice by i.p. injection at a dose of 100 mg/kg in sterile 5% DMSO, 95% Neobee (Josey et al., 2013). One of four methods for seizure induction was subsequently administered to mice at 0.25, 0.5, 1, 2 and 4 h after treatment with compound. (1) Subcutaneous PTZ seizure threshold test. PTZ was administered at a concentration of 85 mg/kg, into the loose fold of skin in the midline of the neck. […] (2) Maximal electroshock test. 60 Hz of 50 mA alternating current was delivered for 0.2 s by corneal electrodes. Mice were considered protected from seizures when the hindlimb tonic extensor was absent (White et al., 1995). (3) Minimal clonic seizure (6 Hz) test. 6 Hz of 32 mA or 44 mA alternating current was delivered for 3 s by corneal electrodes to elicit a psychomotor seizure. Mice were considered protected from seizures when the automatistic behaviors were absent (Barton et al., 2001). (4) Corneal kindled mouse model. Mice were kindled electrically with a 3 s stimulation, 8 mA, 60 Hz, and corneal electrodes to a criterion of 10 consecutive Stage 5 seizures (facial clonus and head nodding progressing to forelimb clonus, and finally rearing and falling accompanied by a generalized clonic seizure as described by Racine, 1972). Animals generally reach Stage 5 after twice daily stimulation for 8 days. With continued stimulation once a day, animals usually progressed to a reproducible Stage 5 after 10-14 additional days. At least 72 hours after the mice were kindled, the test substance was administered i.p. and each animal was given the electrical stimulus indicated above. […] Treated animals not displaying a Stage 4 or 5 seizure were considered protected.

NQO-1 = assay: qRT-PCR of antioxidant response gene NQO-1; type: cell-based, mouse; details: HT22, 10 mM glutamate 16 hrs, relative to glutamate only
Protocol: HT22 cells were seeded onto cell culture treated 6-well plates at 3.0×10^5 cells per well in 2 mL of medium and maintained at 37° C. in 5% CO2 overnight prior to the initiation of experimental treatments. Cells were subsequently treated with 1 mL of medium containing glutamate (monosodium glutamate, Sigma-Aldritch, 1 M stock concentration in media, to achieve a final concentration of 10 mM) plus inhibitors (stock in DMSO) and maintained at 37° C. in 5% CO2. After 16 hrs, the media was collected and the cells harvested by trypsanization. After centrifugation, pelleted cells were washed with cold Hanks' Balanced Salt Solution (HBSS Ca^2+/Mg^2+ Free; Invitrogen; KCl 5.33 mM, KH2PO4 0.441 mM, NaHCO3 4.17 mM, NaCl 137.93 mM, Na2HPO4 0.338 mM, D-Glucose 5.56 mM), qRT-PCR was used to detect HO-1, NQO-1, and PGAM5 mRNAs in the HT22 cells. […] Therefore β2-microglobulin was used as a reference gene (Barrionuevo and Burggren, 1999). HT22 cells were cultured as described for 16 hrs. Total RNAs were extracted using the RNEasy kit (Qiagen), and transcripts of interest were amplified by PCR using the 1-step Syber Green qRT-PCR kit (Quanta) and the following specific primers (Harvard PrimerBank; Integrated DNA Technologies): HO-1, 5′-[…]-3′ (SEQ ID NO:1) and 5′-[…]-3′ (SEQ ID NO:2); PGAM5, 5′-[…]-3′ (SEQ ID NO:3) and 5′-[…]-3′ (SEQ ID NO:4); NQO-1, 5′-[…]-3′ (SEQ ID NO:5) and 5′-[…]-3′ (SEQ ID NO:6); and β2-microglobulin, 5′-[…]-3′ (SEQ ID NO:7) and 5′-[…]-3′ (SEQ ID NO:8). Linearity of the primers was verified before use, and fold changes were calculated as previously described using the Livak method (Barrionuevo and Burggren, 1999).

Compound	animals displaying toxic effects/animals tested, 0.25 hr [1]	animals displaying toxic effects/animals tested, 0.5 hr [1]	animals displaying toxic effects/animals tested, 1.0 hr [1]	animals displaying toxic effects/animals tested, 2.0 hr [1]	animals displaying toxic effects/animals tested, 4.0 hr [1]	effect on PTZ-induced seizures (PTZ-induced seizures)	NQO-1 gene expression (NQO-1)
C#CCNC1=CC(=O)c2ccccc2C1=O [Compound 2h, 2-(prop-2-yn-1-ylamino)naphthalene-1,4-dione]	0/12	1/12	0/12	0/12	0/12	had no effect on PTZ-induced seizures in mice	
O=C1C=C(NCc2ccccc2)C(=O)c2ccccc21 [Compound 2j, 2-(benzylamino)naphthalene-1,4-dione]	0/12	0/12	0/12	0/12	0/12	had no effect on PTZ-induced seizures in mice	did not affect NQO-1 expression
O=C1C=C(NCc2cccc(Cl)c2)C(=O)c2ccccc21 [Compound 2q, 2-((3-chlorobenzyl)amino)naphthalene-1,4-dione]	0/12	0/12	0/12	0/12	0/12	had no effect on PTZ-induced seizures in mice	did not affect NQO-1 expression
menaquinones [VK2, reference compound]							did not affect NQO-1 expression
